What all share (format): in vivo, BALB/c mice
Data set [1] can be described thus: Epacadostat absolute quantification in CT26 tumor sections by QMSI (MALDI MSI). Here is the method:
(§1) Colon carcinoma CT26 cell line was subcutaneously grafted into BALB/c mice (Charles River Laboratories, France). […] Tumors were sampled and snap frozen in liquid nitrogen for 15 s. The samples were kept at −80° C. until use. Ten micrometers thick tissue sections were obtained using a cryostat microtome (CM-3050S, Leica, Germany) with a microtome chamber and a specimen holder chilled at −23° C. Tissue sections were thaw mounted onto ITO-coated slides for downstream MALDI imaging and serial sections on SuperFrost slide for histological and immunohistochemistry (IHC) analysis. Biological replicates in duplicate (distant serial sections) were performed for analytical reproducibility. […] All animal experiments were compliant with the 2010/63/UE European Directive on Laboratory Animal Welfare and were approved by an Ethical Committee.
Then, low limit of detection (LOD), low limit of quantitation (LLOQ) and limit of linearity parameters were defined for the calibration curve that has been performed using at least 10 spotted concentrations on 10 μm thickness control tumor tissue sections. […] On the same ITO slide, calibration curve and tissue sections of interest (1 control and 3 treated in duplicates) were deposited and analyzed. Then, a uniform layer of filtrated 1,5-diaminonaphtalene (1,5-DAN) prepared at 10 mg/mL with 50/50 ACN/H2O matrix was deposited onto the tumor tissue sections using an HTX-TM sprayer device (HTX Technologies, LLC, Carrboro, N.C.). MALDI MSI analyses were performed using 7T MALDI-FTICR (SolariX XR, Bruker Daltonics, Bremen, Germany) with a SmartBeam II laser. […] Data acquisition was performed using the Flex software (FtmsControl 2.1.0) from Bruker Daltonics. Then, Multimaging software (ImaBiotech SAS) was used to obtain the calculated equation and to extract the different quantities in pmol/mm^2. A quantity conversion to μg/g of tissue was then obtained in created regions of interest (ROIs).
1.2 software (ImaBiotech SAS). This multimodal imaging platform combines quantitative mass spectrometry imaging (QMSI) and microscopy platform with statistical analysis for the understanding of the Omics information at cellular levels. MSI data were acquired from each tissue section as well as matrix control areas adjacent to the tissue sections to check for analyte dispersion/delocalization during sample preparation. Therefore, the ROIs related to EPA and/or Kyn presence were given by an image segmentation algorithm. […] Then, the algorithm smoothed the two ROIs to transform them into connected spaces. Finally, an exposure score was calculated using the Multimaging software using the formula: […]

Data set [2] in a line: Epacadostat quantification in CT26 tumor sections by LC-MS/MS. To be noted: BALB/c, mouse, CT26 tumor tissue sections, 100 mg/kg oral gavage.
Data set [3] can be described thus: Epacadostat quantification in plasma and blood. To be noted: BALB/c, mouse, 100 mg/kg oral.
A further data set concerns the target T1, IDO1 (Mus musculus, UniProt P28776).
T1 construct: Colon carcinoma CT26 cell line was subcutaneously grafted into BALB/c mice; from tissue
The experiment in a line: Regional exposure to response analysis in segmented ROIs of treated CT26 tumor (Kyn, Lactate, IDO1 immunostaining). Here is the method: as §1
As Kyn was not detectable and Trp was slightly seen using classical method in CT26 tumor models, a derivatization strategy was necessary. The derivatization reaction amounts to adding the C11H16N+ (as X) unit to the neutral analyte. The agent was applied using an automatic sprayer (Suncollect, Sunchrom) and left during 30 min for incubation at room temperature. […] MSI data for kynurenine and tryptophan was recorded in positive ion mode (CASI, m/z range 350.0+/−150) at 120 μm of spatial resolution using an online calibration. […]
For MALDI MSI of other metabolites, a uniform layer of filtrated 1,5-diaminonaphtalene (1,5-DAN) prepared at 10 mg/mL with 50/50 ACN/H2O matrix was deposited onto the tumor tissue sections using an HTX-TM sprayer device (HTX Technologies, LLC, Carrboro, N.C.). […] MSI data for metabolites were recorded in full scan negative ion mode (m/z range 100-1000) at 120 μm of spatial resolution using an online calibration. […]
1.2 software (ImaBiotech SAS). This multimodal imaging platform combines quantitative mass spectrometry imaging (QMSI) and microscopy platform with statistical analysis for the understanding of the Omics information at cellular levels. […] Finally, an exposure score was calculated using the Multimaging software using the formula: […]

The text below walks through data of patent US20220137027A1, “METHOD FOR EVALUATING MOLECULAR CHANGES RELATED TO A MOLECULE EFFECT IN A BIOLOGICAL SAMPLE” (IMABIOTECH, priority 2019, published 2022).

Usually Kp stands for tissue or fluid exposure divided by exposure in the circulation.

The structures appear in SMILES notation.

T1 sequence (P28776 whole entry): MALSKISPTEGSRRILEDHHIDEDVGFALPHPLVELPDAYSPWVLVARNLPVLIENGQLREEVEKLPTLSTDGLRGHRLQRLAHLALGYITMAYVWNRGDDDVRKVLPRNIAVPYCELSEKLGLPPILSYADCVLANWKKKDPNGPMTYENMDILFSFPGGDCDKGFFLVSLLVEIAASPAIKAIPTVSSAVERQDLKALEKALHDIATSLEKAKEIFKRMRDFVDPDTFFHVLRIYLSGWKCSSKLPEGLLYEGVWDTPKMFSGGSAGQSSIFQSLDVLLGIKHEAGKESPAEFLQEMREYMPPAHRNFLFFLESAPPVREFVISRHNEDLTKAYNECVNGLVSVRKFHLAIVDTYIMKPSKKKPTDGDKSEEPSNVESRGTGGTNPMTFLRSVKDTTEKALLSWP

`NS(=O)(=O)NCCNc1nonc1C(=NO)Nc1ccc(F)c(Br)c1` [EPA, Epacadostat] had a Kp at 2 h in data set [1] (BALB/c, mouse, CT26 tumor relative to plasma, oral, 100 mg/kg, treated CT26 tumors, LC-MS/MS and QMSI) of 3 to 4. Also, the concentration at 2 h is 68000 ng/g in data set [1] (BALB/c, mouse, CT26 tumor section, ROI 1 (high EPA region), oral, 100 mg/kg, EPA quantity in ROI 1 (high EPA), QMSI, ROI 1 = 38% of tumor surface); 26000 ng/g in data set [1] (BALB/c, mouse, CT26 tumor section, ROI 1, oral, 100 mg/kg, EPA quantity corresponding to the share in ROI 1, 61% of EPA signal); 25000 ng/g in data set [1] (BALB/c, mouse, CT26 tumor section, ROI 2 (low EPA region), oral, 100 mg/kg, EPA quantity in ROI 2 (low EPA), QMSI, ROI 2 = 62% of tumor surface); 15000 ng/g in data set [1] (BALB/c, mouse, CT26 tumor section, ROI 2, oral, 100 mg/kg, EPA quantity corresponding to the share in ROI 2, 39% of EPA signal); 42000 ng/g in data set [1] (BALB/c, mouse, CT26 tumor section, ROI 3 (entire section), oral, 100 mg/kg, EPA quantity in ROI 3 (entire treated tumor section), QMSI); 38000 to 53000 ng/g in data set [1] (BALB/c, mouse, CT26 tumor tissue sections, po, 100 mg/kg, EPA quantity in treated CT26 tumor sections, three biological triplicates, QMSI, 100 mg/kg oral gavage, sacrificed 2 hours later). Besides, the concentration at 2 h in data set [1] (BALB/c, mouse, CT26 tumor tissue sections, po, 100 mg/kg, average EPA quantity in CT26 tumor, QMSI, 100 mg/kg oral gavage, 2 hours) is 46000 ng/g; in data set [1] (BALB/c, mouse, CT26 tumor tissue, oral, 100 mg/kg, available on tissue quantity of EPA in treated CT26 tumors, LC-MS/MS and QMSI) it was 35000 to 48000 ng/g; in data set [2] it was 38500 ng/g; in data set [3] (plasma), 6600 ng/g; in data set [3] (whole blood), 7300 ng/g. Besides, the “share of EPA signal concentrated in ROI 1” value in data set [1] (ROI 1 = 38% of entire tissue section) is recorded as ~61%. Further, the “share of EPA signal in ROI 2” value in data set [1] (ROI 2 = 62% left tumor region) was 39%. For the same compound, on IDO1 (IDO1 immunostaining on serial section), the “correlation between IDO1 expression level (semi-quantitative histology) and EPA levels” value is given as “positive correlation”. In addition, on IDO1 (ROI 1 = 38% of the entire tumor), the “share of Kyn present in ROI 1 (high EPA)” value is on record as 15%. For the same compound, the “share of Kyn present in ROI 2 (low EPA)” value at IDO1 (ROI 2) worked out at 85%.
